One block for each compound: values may come before it.
Tests used:
[1] = biological target: T1, zebrafish Kv7.1 (KCNQ1) (Danio rerio, UniProt B0R0K2); experiment: cell-based; format: cell-based
T1 construct: gene kcnq1.1
T1 sequence (B0R0K2 1-655): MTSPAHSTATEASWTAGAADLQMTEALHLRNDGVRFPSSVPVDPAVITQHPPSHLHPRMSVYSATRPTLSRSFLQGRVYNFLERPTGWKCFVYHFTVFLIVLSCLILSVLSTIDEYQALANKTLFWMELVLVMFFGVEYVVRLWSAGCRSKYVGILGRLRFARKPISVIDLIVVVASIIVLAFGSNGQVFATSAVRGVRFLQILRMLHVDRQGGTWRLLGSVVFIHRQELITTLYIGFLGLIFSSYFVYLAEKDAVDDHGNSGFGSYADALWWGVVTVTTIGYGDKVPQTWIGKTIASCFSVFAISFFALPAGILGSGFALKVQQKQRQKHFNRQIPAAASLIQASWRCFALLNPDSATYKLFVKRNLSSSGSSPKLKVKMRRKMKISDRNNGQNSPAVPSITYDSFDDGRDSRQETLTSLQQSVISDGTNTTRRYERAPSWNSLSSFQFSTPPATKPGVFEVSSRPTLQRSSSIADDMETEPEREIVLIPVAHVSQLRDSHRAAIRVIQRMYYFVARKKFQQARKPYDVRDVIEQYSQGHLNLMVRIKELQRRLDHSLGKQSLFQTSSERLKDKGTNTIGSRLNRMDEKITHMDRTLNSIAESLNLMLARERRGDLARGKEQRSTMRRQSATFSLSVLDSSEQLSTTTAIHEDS

[2] = biological target: T1, zebrafish Kv7.1 (KCNQ1); experiment: two-electrode voltage clamp, zebrafish Kv7.[…] expressed in Xenopus laevis oocytes; format: cell-based

two-electrode voltage clamp, zebrafish Kv7.1 expressed in Xenopus laevis oocytes [1]: 12.2 mV left shift of V0.5 at 20 µM
Compound: CC/C=C\C/C=C\C/C=C\C/C=C\C/C=C\C/C=C\CCC(=O)NCC(=O)O [DHA-Gly]

fold induction at 1 µM ([1]; read-out: two-electrode voltage clamp, zebrafish Kv7.1 expressed in Xenopus laevis oocytes): > 8
Compound: COc1ccc(-c2csc(NC(=O)[C@H]3CCCCN3S(=O)(=O)c3ccc(C)cc3)n2)cc1 [ML-277]

inhibition at 10 µM [2]: 76%
Compound: CCS(=O)(=O)N(C)[C@H]1c2cc(C#N)ccc2OC(C)(C)[C@@H]1O (racemic) [chromanol 293B]

From publication PMC10418701, “Pharmacological Screening of Kv7.1 and Kv7.1/KCNE1 Activators as Potential Antiarrhythmic Drugs in the Zebrafish Heart” (International Journal of Molecular Sciences, 2023)
